Results from paper PMC8225760, “Residue 6.43 defines receptor function in class F GPCRs” (Nature Communications, 2021).
Positions count from the first letter of the chain named.

Experiments:
Type in all cases: cell-based
[1] = biological target: T1, SMO (HiBiT-SMO; SMO-Nluc) (Mus musculus, UniProt P56726, F466P); assay: NanoBiT/BRET saturation binding in live cells; details: HBSS, 90 min, 37 °C; cell-surface receptor; labelled compound; error SD
T1 construct: full-length receptor; C-terminal Nluc (SMO-Nluc) for miniGsi recruitment; expressed in deltaSMO HEK293A cells
T1 sequence (P56726 33-793 F466P): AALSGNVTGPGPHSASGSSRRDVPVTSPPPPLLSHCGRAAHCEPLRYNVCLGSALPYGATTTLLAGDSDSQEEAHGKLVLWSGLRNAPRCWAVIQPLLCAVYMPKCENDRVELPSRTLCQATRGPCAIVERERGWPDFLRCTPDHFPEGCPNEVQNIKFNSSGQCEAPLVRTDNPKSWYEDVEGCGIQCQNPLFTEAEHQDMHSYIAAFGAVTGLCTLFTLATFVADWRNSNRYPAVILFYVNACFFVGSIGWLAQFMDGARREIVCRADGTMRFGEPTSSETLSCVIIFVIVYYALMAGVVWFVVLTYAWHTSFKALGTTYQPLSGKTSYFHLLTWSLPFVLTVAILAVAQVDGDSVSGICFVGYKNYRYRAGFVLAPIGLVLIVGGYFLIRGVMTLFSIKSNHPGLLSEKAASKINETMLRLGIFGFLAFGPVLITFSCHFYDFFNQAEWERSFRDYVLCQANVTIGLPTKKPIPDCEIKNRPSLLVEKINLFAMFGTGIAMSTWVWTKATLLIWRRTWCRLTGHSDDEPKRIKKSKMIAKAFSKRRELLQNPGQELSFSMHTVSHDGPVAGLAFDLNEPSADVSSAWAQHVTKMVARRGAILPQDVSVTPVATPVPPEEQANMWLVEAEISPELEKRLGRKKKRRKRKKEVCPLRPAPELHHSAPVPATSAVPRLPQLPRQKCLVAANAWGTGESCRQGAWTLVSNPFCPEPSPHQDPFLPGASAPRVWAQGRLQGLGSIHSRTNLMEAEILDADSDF

[2] = biological target: T2, FZD6 (HiBiT-FZD6; FZD6-Nluc) (Homo sapiens, UniProt O60353, P427F); assay: NanoBiT/BRET saturation binding in live cells; details: HBSS, 90 min, 37 °C; cell-surface receptor; upper 7TM site; labelled compound; error SD
T2 construct: full-length receptor; expressed in deltaSMO HEK293A cells; UniProt id given for the homology model
T2 sequence (O60353 19-706 P427F): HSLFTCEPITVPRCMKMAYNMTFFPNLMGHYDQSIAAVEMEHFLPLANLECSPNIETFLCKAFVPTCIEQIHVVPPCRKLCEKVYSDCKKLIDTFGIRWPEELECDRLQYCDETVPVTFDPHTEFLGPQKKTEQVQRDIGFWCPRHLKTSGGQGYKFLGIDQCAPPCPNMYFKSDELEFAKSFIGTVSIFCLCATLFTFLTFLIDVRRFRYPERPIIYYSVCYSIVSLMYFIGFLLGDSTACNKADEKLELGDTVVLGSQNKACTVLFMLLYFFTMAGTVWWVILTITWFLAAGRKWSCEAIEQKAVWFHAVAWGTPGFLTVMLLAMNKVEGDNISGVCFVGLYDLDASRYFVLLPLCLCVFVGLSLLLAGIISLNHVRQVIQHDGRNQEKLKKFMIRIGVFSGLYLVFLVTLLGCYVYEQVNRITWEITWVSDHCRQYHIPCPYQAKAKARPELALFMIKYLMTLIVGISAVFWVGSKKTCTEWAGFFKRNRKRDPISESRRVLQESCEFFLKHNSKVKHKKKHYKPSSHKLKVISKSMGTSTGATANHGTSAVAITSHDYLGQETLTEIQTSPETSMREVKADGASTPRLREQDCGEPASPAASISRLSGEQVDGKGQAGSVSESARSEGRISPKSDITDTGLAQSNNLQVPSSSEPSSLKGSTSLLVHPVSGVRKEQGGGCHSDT

[3] = biological target: T3, FZD6 (HiBiT-FZD6; FZD6-Nluc) (Homo sapiens, UniProt O60353); assay: NanoBiT/BRET saturation binding in live cells; details: HBSS, 90 min, 37 °C; cell-surface receptor; upper 7TM site; labelled compound; error SD
T3 construct: full-length receptor; expressed in deltaSMO HEK293A cells; UniProt id given for the homology model
T3 sequence (O60353 19-706): T2 sequence (O60353 19-706 P427F) with F409P

[4] = biological target: T4, SMO (HiBiT-SMO; SMO-Nluc) (Mus musculus, UniProt P56726); assay: NanoBiT/BRET saturation binding in live cells; details: HBSS, 90 min, 37 °C; cell-surface receptor; monophasic, lower 7TM site; labelled compound; error SD
T4 construct: full-length receptor; C-terminal Nluc (SMO-Nluc) for miniGsi recruitment; expressed in deltaSMO HEK293A cells
T4 sequence (P56726 33-793): as the sequence (P56726 33-793 F466P) above, with P434F counted along it

[5] = biological target: T3, FZD6 (HiBiT-FZD6; FZD6-Nluc); assay: BRET Venus-mGsi recruitment to receptor-Nluc in deltaSMO HEK293A cells; details: agonist; bell-shaped concentration response; read 5 min after addition

Row | Structure (SMILES) | pKd [1] | pKd [2] | pKd [3] | pKd [4] | BRET Venus-mGsi recruitment to receptor-Nluc in deltaSMO HEK293A cells [5]
1 | CC1=C2CC3C(CC=C4C[C@@H](O)CCC43C)C2CCC12O[C@@H]1CC(C)CN(CCNC(=O)CCCCCNC(=O)CCC3=[N+]4C(=Cc5c(C)cc(C)n5[B-]4(F)F)C=C3)C1C2C (some centres unmarked) [BODIPY-cyclopamine] | 5.44 ± 1.02 -log10 M | 6.28 ± 0.20 -log10 M | 6.45 ± 0.23 -log10 M | 6.87 ± 0.13 -log10 M | 
2 | CN[C@H]1CC[C@H](N(Cc2cccc(-c3ccncc3)c2)C(=O)c2sc3ccccc3c2Cl)CC1 [SAG1.3] |  |  |  |  | SAG1.3-induced mGsi recruitment to SMO, while that to FZD6 remained unaffected
